Test results from patent publication US9597407B2, “Targeted antimicrobial moieties” (C3 Jian, Inc., priority 2009, dated 2017).
Entries after “also recorded” stand apart in the source; their conditions may differ.

Tested on: bacteria
Assay: Binding of targeting peptides to microorganisms (Table 3)
Conditions: microorganism bound by the targeting peptide; binding in aqueous buffers chosen by peptide solubility, preferably 1x PBS

Substance | Target(s)
PF-237 (YVKPKVGVHE; Peptide with targeting and/or antimicrobial activity) | S. epidermidis
PF-326 (VIVGNLGAQKEKRNDTPISAKKDIMGDKTVRVRADLHH; Peptide with targeting and/or antimicrobial activity) | S. mutans; also recorded: E. coli
PF-197 (CNALLRRGHPPSAL; Peptide with targeting and/or antimicrobial activity) | S. epidermidis; also recorded: M. luteus; also recorded: C. albicans; also recorded: E. faecalis; also recorded: C. jejuni
PF-247 (ETAASETH; Peptide with targeting and/or antimicrobial activity) | S. epidermidis
PF-146 (GCGKRRIITKSASRDTR; Peptide with targeting and/or antimicrobial activity) | S. epidermidis and M. luteus and P. aeruginosa and C. albicans and MRSA and C. jeikeium
PF-333 (YMTKKLVEMAEQQMAGKSNR; Peptide with targeting and/or antimicrobial activity) | S. mutans
PF-195 (EMAEGSADDRLRKTPRDC; Peptide with targeting and/or antimicrobial activity) | S. epidermidis; also recorded: M. luteus; also recorded: E. faecalis; also recorded: C. jeikeium
PF-266 (DQEKKNKTEESTEQ; Peptide with targeting and/or antimicrobial activity) | S. mutans
PF-364 (LVNGIKI; Peptide with targeting and/or antimicrobial activity) | S. epidermidis; also recorded: B. fragilis; also recorded: P. aeruginosa; also recorded: C. jeikeium; also recorded: C. jejuni
PF-210 (EREDGCDAMPLP; Peptide with targeting and/or antimicrobial activity) | S. epidermidis and P. aeruginosa and C. albicans and MRSA and E. faecalis and C. jeikeium and C. jejuni
PF-221 (VFDNIDINF; Peptide with targeting and/or antimicrobial activity) | S. epidermidis; also recorded: M. luteus; also recorded: P. aeruginosa
PF-300 (VKDVLLELFNKIIGA; Peptide with targeting and/or antimicrobial activity) | B. subtilis; also recorded: C. difficile
PF-206 (KLRSASKKSLQEKSCGIMPEKPAG; Peptide with targeting and/or antimicrobial activity) | M. luteus; also recorded: C. albicans; also recorded: C. jeikeium; also recorded: C. jejuni
PF-229 (DPILIQIGFTRFALRKAEAEKIEIQVEEGVPA; Peptide with targeting and/or antimicrobial activity) | S. epidermidis; also recorded: M. luteus; also recorded: P. aeruginosa; also recorded: A. baumannii
PF-158 (VRLESRPADLPE; Peptide with targeting and/or antimicrobial activity) | S. epidermidis
PF-368 (MLKQTA; Peptide with targeting and/or antimicrobial activity) | C. jeikeium; also recorded: C. jejuni
PF-200 (GIELKSLIMAQIERWRQA; Peptide with targeting and/or antimicrobial activity) | S. epidermidis and M. luteus and MRSA and E. faecalis and C. jeikeium

Same assay, conditions: microorganism the targeting peptide binds; binding in aqueous buffers that varied with peptide solubility, preferably 1x PBS

Substance | Target(s)
1T-250 (LVQGDTILIENHVGTPVKDDGKDCLIIREADVLAVVND; Peptide with targeting and/or antimicrobial activity) [Peptide 1T-250] | S. mitis; also recorded: S. mutans; also recorded: S. oralis
TT-306 (KILNEAEGKLLKVIEKNGEIDIEEI; Peptide with targeting and/or antimicrobial activity) | F. nucleatum
1T-282 (ISLVFPAYT; Peptide with targeting and/or antimicrobial activity) [Peptide 1T-282] | F. nucleatum; also recorded: P. gingivalis; also recorded: S. gordonii; also recorded: S. mitis; also recorded: S. mutans; also recorded: S. oralis; also recorded: S. salivarious; also recorded: S. sanguinis
PF-018 (YYKTYFKEV; Peptide with targeting and/or antimicrobial activity) | E. coli; also recorded: C. jeikeium
TT-307 (NGDKKAKEELDKWDEVIKELNIQF; Peptide with targeting and/or antimicrobial activity) | F. nucleatum
PF-014 (HPTDNKHN; Peptide with targeting and/or antimicrobial activity) | E. coli; also recorded: C. jeikeium
TT-309 (EPLPLTKYDKKDTEMKKVFKEILAGKVGYEKEEE; Peptide with targeting and/or antimicrobial activity) | F. nucleatum
1T-198 (MPVSKKRYMLSSAYATALGICYGQVATDEKESEITAIPDLLDYLSVEEYLL; Peptide with targeting and/or antimicrobial activity) [Peptide 1T-198] | P. gingivalis; also recorded: S. epidermidis; also recorded: S. gordonii; also recorded: S. mitis; also recorded: S. mutans; also recorded: S. oralis; also recorded: S. sanguinis
1T-193 (LMIFDKHANLKYKYGNRSFGVEAIM; Peptide with targeting and/or antimicrobial activity) [Peptide 1T-193] | S. sanguinis
PF-044 (KLKKYIHKPD; Peptide with targeting and/or antimicrobial activity) | S. epidermidis and M. luteus and MRSA and C. jeikeium
TT-305 (ARNALNMRDVPVDAAIIGIIDGMDEE; Peptide with targeting and/or antimicrobial activity) | F. nucleatum
PF-016 (RKQYDDLSFNFLY; Peptide with targeting and/or antimicrobial activity) | S. epidermidis; also recorded: E. faecalis; also recorded: C. jeikeium

Same assay, conditions: peptide binding in aqueous buffers that varied depending on peptide solubility; preferably 1x PBS

Substance | Target(s) (microorganism bound by the targeting peptide)
PF-724 (CYRFLTPKRPTRIS; Peptide with targeting and/or antimicrobial activity) | L. pneumophila
PF-767 (DGKQGEPVALKPTDN; Peptide with targeting and/or antimicrobial activity) | S. epidermidis and M. luteus and E. coli and MRSA and S. pneumoniae and E. faecalis and C. jeikeium
PF-735 (YDPLFPNDKN; Peptide with targeting and/or antimicrobial activity) | S. mutans; also recorded: E. coli
PF-799 (YTHYNTALSYALLLTNKSSVP; Peptide with targeting and/or antimicrobial activity) | S. mutans
PF-784 (MAMTTVDNIVGLVIAVALMAFLFAALLFPEKF; Peptide with targeting and/or antimicrobial activity) | Mycobacteria spp.
PF-676 (AEYRGL; Peptide with targeting and/or antimicrobial activity) | S. mutans; also recorded: E. coli
PF-S023 (MAEDERRALKRRTNRGRTRTRKRITV; Peptide with targeting and/or antimicrobial activity) | S. epidermidis and MRSA

Same assay, conditions: peptide binding in aqueous buffers varied by peptide solubility; preferably 1x PBS

Substance | Target(s) (microorganism bound by the targeting peptide)
1T-112 (SDNDGKLILGTSQ; Peptide with targeting and/or antimicrobial activity) [Peptide 1T-112] | S. gordonii
1T-79 (FGTPWSITNFWKKNFNDRPDFDSDRRRY; Peptide with targeting and/or antimicrobial activity) [Peptide 1T-79] | S. pneumoniae
1T-71 (KIDTNQWPPNKEG; Peptide with targeting and/or antimicrobial activity) [Peptide 1T-71] | P. aeruginosa
1T-70 (NRQAQGERAHGEQQG; Peptide with targeting and/or antimicrobial activity) [Peptide 1T-70] | S. aureus; also recorded: C. jeikeium; also recorded: P. aeruginosa
1T-21 (YVEEAVRAALKKEARISTEDTPVNLPSFDC; Peptide with targeting and/or antimicrobial activity) [Peptide 1T-21] | S. mutans; also recorded: P. aeruginosa
1T-81 (AIATGLDIVDGKFDGYLWA; Peptide with targeting and/or antimicrobial activity) [Peptide 1T-81] | S. pneumoniae
1T-107 (SPVPRFTAVGGVSRGSP; Peptide with targeting and/or antimicrobial activity) [Peptide 1T-107] | A. naeslundii; also recorded: S. epidermidis; also recorded: S. gordonii; also recorded: S. mitis; also recorded: S. mutans; also recorded: S. oralis; also recorded: S. salivarious; also recorded: S. sanguinis
1T-54 (RWVSCNPSWRIQ; Peptide with targeting and/or antimicrobial activity) [Peptide 1T-54] | S. epidermidis; also recorded: C. xerosis; also recorded: C. striatum; also recorded: P. aeruginosa
1T-139 (AVAGAAVGALLGNDARSTAVGAAIGGALGAGAGELTKNK; Peptide with targeting and/or antimicrobial activity) [Peptide 1T-139] | A. naeslundii; also recorded: S. gordonii; also recorded: S. mitis; also recorded: S. mutans; also recorded: S. oralis
1T-77 (EMRISRIILDFLFLRKK; Peptide with targeting and/or antimicrobial activity) [Peptide 1T-77] | S. pneumoniae
1T-106 (DALRRSRSQGRRHR; Peptide with targeting and/or antimicrobial activity) [Peptide 1T-106] | S. gordonii; also recorded: S. mitis; also recorded: S. mutans; also recorded: S. oralis; also recorded: S. salivarious
